Assays:
MALME-3M/Melanoma = test: NCI single-dose screen, MALME-3M; type: cell-based, human; conditions: 10 μM, 48 h
Procedure: (§1) Considering the results of previous studies of fused thiazolidinones and their analogs, a series of thiopyrano[2,3-d]thiazoles with naphthoquinone fragments in the structure were studied for their anticancer activity. Thus, synthesized thiopyranothiazole derivatives 3.5 and 3.6 were selected by the National Cancer Institute (NCI), U.S., for their anticancer activity at 10 μM concentration toward a panel of sixty cancer cell lines representing nine different types (leukemia, melanoma, lung, colon, CNS, ovarian, renal, prostate, and breast cancers) (Figures S13–S14). Selection for screening based on new derivatives’ ability to add diversity to the NCI small molecules collection and anticancer assays were performed according to the NCI guidelines and protocols previously described. The compounds were added at the mentioned concentration, and the cell cultures were incubated for 48 h. The results for each compound were reported as the growth percent (GP%) of treated cells compared with untreated control cells.
(§2) Anticancer in vitro assay was performed on the human tumor cell lines panel derived from nine neoplastic diseases by the protocol of the Drug Evaluation Branch, National Cancer Institute, Bethesda, MD, USA [44, 45, 46]. […] GP% was spectrophotometrically evaluated vs. controls not treated with test agents.

MDA-MB-435/Melanoma = test: NCI single-dose screen, MDA-MB-435; type: cell-based, human; conditions: 10 μM, 48 h
Procedure: as §1, §2

[1] = test system: KBC-1 (ABCB1-overexpressing subline of KB3-1); test: MTT cell viability assay, KBC-1; type: cell-based; conditions: Homo sapiens, 72 h
Procedure: (§3) The MTT cell viability assay was performed 72 h after cells treatment with various concentrations of studied compounds and doxorubicin, a reference drug. […] It is known that ABCB1 (P-glycoprotein), MRP1/ABCC1 (multidrug resistance protein 1), and BCRP/BCG2 (breast cancer resistance protein) have been reported to be key players in resistance to chemotherapy. […] The p53 has diverse mutations in almost all human tumors, stimulating their hyper-proliferation, invasion/metastasis, and thus, influencing the potency of various chemotherapeutics (i.e., platins and anti-metabolites).
(§4) Human colon carcinoma HCT116 cells, human breast adenocarcinoma cells of MCF-7 line, human T-leukemia Jurkat cells, human chronic myelogenous leukemia K562 cells, and human keratinocytes of HaCaT line were from the Cell Collection of R.E. Kavetsky Institute of Experimental Pathology, Oncology and Radiobiology (Kyiv, Ukraine). Murine macrophages of J774.2 line were a generous gift from Professor Sir John Vane (William Harvey Research Institute, London, UK) via Professor Janusz Marcinkiewicz (Jagiellonian University Medical College, Krakow, Poland). Human colon carcinoma HCT116 p53-/- cells with knockdown of P53 gene, as well as human epidermoid cervix carcinoma KB3-1 cells and its ABCB1-overexpressing subline KBC-1, were kindly provided by Professor W. Berger (Institute of Cancer Research, Medical University of Vienna, Austria). […] Human leukemia monocytic THP-1 cells were kindly provided by Professor M. Herrmann (Department of Internal Medicine, Institute for Clinical Immunology and Rheumatology, University of Erlangen-Nuremberg, Germany). […]
(§5) MTT assay was used to examine the viability of tumor and pseudo-normal cells after their treatment with studied thiopyrano[2,3-d]thiazole derivatives and doxorubicin (Actavis S.R.L., Bucharest, Romania). […] An absorbance Reader BioTek ELx800 (BioTek Instruments, Inc., Winooski, VT, USA) was used to measure the reaction product.

[2] = test system: human T-leukemia Jurkat cells; test: MTT cell viability assay, Jurkat; type: cell-based; conditions: 72 h
Procedure: as §3
(§6) Human colon carcinoma HCT116 cells, human breast adenocarcinoma cells of MCF-7 line, human T-leukemia Jurkat cells, human chronic myelogenous leukemia K562 cells, and human keratinocytes of HaCaT line were from the Cell Collection of R.E. Kavetsky Institute of Experimental Pathology, Oncology and Radiobiology (Kyiv, Ukraine). […]
as §5

[3] = test system: Human leukemia monocytic THP-1 cells; test: MTT cell viability assay, THP-1; type: cell-based; conditions: 72 h
Procedure: as §3, §6, §5

[4] = test system: Human colon carcinoma HCT116 cells (HCT116wt); test: MTT cell viability assay, HCT116wt; type: cell-based; conditions: Homo sapiens, HCT-116, 72 h
Procedure: as §3
(§7) Human colon carcinoma HCT116 cells, human breast adenocarcinoma cells of MCF-7 line, human T-leukemia Jurkat cells, human chronic myelogenous leukemia K562 cells, and human keratinocytes of HaCaT line were from the Cell Collection of R.E. Kavetsky Institute of Experimental Pathology, Oncology and Radiobiology (Kyiv, Ukraine). Murine macrophages of J774.2 line were a generous gift from Professor Sir John Vane (William Harvey Research Institute, London, UK) via Professor Janusz Marcinkiewicz (Jagiellonian University Medical College, Krakow, Poland). Human colon carcinoma HCT116 p53-/- cells with knockdown of P53 gene, as well as human epidermoid cervix carcinoma KB3-1 cells and its ABCB1-overexpressing subline KBC-1, were kindly provided by Professor W. Berger (Institute of Cancer Research, Medical University of Vienna, Austria). […] Human leukemia monocytic THP-1 cells were kindly provided by Professor M. Herrmann (Department of Internal Medicine, Institute for Clinical Immunology and Rheumatology, University of Erlangen-Nuremberg, Germany). Cells were cultured in DMEM or RPMI-1640 medium supplemented with 10% fetal bovine serum (all were purchased from Biowest, Nuaille, France) at 37 °C in a humidified atmosphere containing 5% CO2.
(§8) MTT assay was used to examine the viability of tumor and pseudo-normal cells after their treatment with studied thiopyrano[2,3-d]thiazole derivatives and doxorubicin (Actavis S.R.L., Bucharest, Romania). Cells were seeded in 96-well plates at a density of 3–5 × 103. After 24 h, cells were treated with compound […], 1,4-NQ (0.1–100 µM), and doxorubicin (0.1–100 µM). After incubation for 72 h, MTT reagent (Sigma-Aldrich, St. Louis, MO, USA) was added to each well, according to the Sigma-Aldrich protocol. An absorbance Reader BioTek ELx800 (BioTek Instruments, Inc., Winooski, VT, USA) was used to measure the reaction product.

[5] = test system: human breast adenocarcinoma cells of MCF-7 line; test: MTT cell viability assay, MCF-7; type: cell-based; conditions: Homo sapiens, MCF7, 72 h
Procedure: as §3, §7, §8

[6] = test system: human keratinocytes of HaCaT line; test: MTT cell viability assay, HaCaT; type: cell-based; conditions: 72 h, pseudo-normal cells
Procedure: as §3, §4, §5

[7] = test system: human chronic myelogenous leukemia K562 cells; test: MTT cell viability assay, K562; type: cell-based; conditions: Homo sapiens, K562, 72 h
Procedure: as §3, §7, §8

Jurkat cells = test: DNA laddering (DNA extraction and gel electrophoresis); type: cell-based, human
Procedure: DNA extraction and gel electrophoresis were performed as described by Herrmann and others. Jurkat cells were collected by centrifugation; lysed in a lysis buffer (1% NP-40 in 20 mM EDTA, 50 mM Tris-HCl, pH 7.5; 10 µL per 10 6 cells, minimum 50 µL). After centrifugation for 5 min at 1600× g, the supernatant was collected and the extraction was repeated with the same amount of lysis buffer. Supernatants were brought to 1% SDS and treated for 2 h with RNase A (final concentration 5 µg/mL) at 56 °C. Then, proteinase K was added (final concentration 2.5, µg/mL) and incubated for 2 h at 37 °C. After adding 1/2 volume of 10 M ammonium acetate, the DNA was precipitated with 2.5 vol. Ethanol, dissolved in gel loading buffer, and separated by electrophoresis in 1% agarose gels containing Ethidium bromide (at 70 V).

salmon sperm DNA = test: DNA/methyl green colorimetric (replacement) assay; type: binding
Procedure: In addition, we used DNA/methyl green colorimetric assay to study the possible interaction of compound 3.6 in DNA. […] This assay was used to measure the displacement of methyl green from DNA by compounds with the ability to intercalate DNA [54].
The capacity of the tested compounds to intercalate into salmon sperm DNA was determined using the methyl green assay. Briefly, salmon sperm DNA (10 mg/mL) was incubated for 1 h at 37 °C with 15 µL of methyl green solution (1 mg/mL in H2O). The compounds were added at concentrations 1 and 10 µM/mL and incubated at 37 °C in the dark for 2 h. Reduction of the absorbance of methyl green at 642 nm induced by the test compounds was measured with a multiplate reader, Plate Reader BioTek Lx80 ( BioTek Instruments, Inc., Winooski, VT, USA). Doxorubicin, a well-known intercalating agent, was used as a positive control.

Compound	Most Sensitive Cell Line Growth, % (MALME-3M/Melanoma) (MALME-3M/Melanoma) [%]	Most Sensitive Cell Line Growth, % (MDA-MB-435/Melanoma) (MDA-MB-435/Melanoma) [%]	IC50 [1] [nM]	IC50 [2] [nM]	IC50 [3] [nM]	IC50 [4] [nM]	IC50 [5] [nM]	IC50 ([6]; Homo sapiens, HaCaT) [nM]	IC50 [7] [nM]	DNA laddering (Jurkat cells; 1 µM)	DNA laddering (Jurkat cells; 2.5 µM and 5 µM)	DNA laddering (Jurkat cells; 10 µM and 25 µM)	percentage of methyl green replacement (salmon sperm DNA; dependent on concentration (1 and 10 µM)) [%]	IC50 ([6]; listed as Dox) [nM]	DNA laddering (Jurkat cells; 0.5 µM)	methyl green replacement (salmon sperm DNA; 10 µM, compared with compound 3.6)
O=C1C2=C(C(=O)c3ccccc31)C(CCc1ccccc1)c1sc(=O)[nH]c1S2 (stereo not drawn) [Compound 3.6, 11-Phenethyl-3,11-dihydro-2H-benzo[6,7]thiochromeno[2,3-d]thiazole-2,5,10-trione]	45.25	52.87	12800	760	7940	6370	8940	> 100000	25700	slight laddering of DNA	necrotic degradation of DNA	extreme DNA fragmentation	35.00 to 39.64	–	–	–
COc1cccc2c1C(=O)c1c(O)c3c(c(O)c1C2=O)C[C@@](O)(C(=O)CO)C[C@@H]3O[C@H]1C[C@H](N)[C@H](O)[C@H](C)O1 [Doxorubicin, doxorubicin, reference compound]	–	−82.60	1970	670	14000	70	630	800 to 1000	620	–	–	–	–	800	more necrotic changes in treated Jurkat cells than apoptotic ones	two times more effective

Reference: publication PMC9658586, “1,4-Naphthoquinone Motif in the Synthesis of New Thiopyrano[2,3-d]thiazoles as Potential Biologically Active Compounds” (Molecules, 2022)
